Experimental data: PMC12494546, “Structural basis of heme scavenging by the ChtA and HtaA hemophores in Corynebacterium diphtheriae” (The Journal of Biological Chemistry, 2025)
Values joined by “and” are separate entries in the source; they are usually repeats but may differ in a detail not shown here. Equal entries are not always repeated.

How the values were obtained:
[1] = target: ChtA^CR K177G + Y178H; experiment: ITC of hemin binding to ChtA^CR K177G + Y178H; set-up: species or system Corynebacterium diphtheriae; conditions: 25 °C, average of three replicates
From the text: (§1) Protein samples were equilibrated in titration buffer supplemented with 5% (v/v) DMSO. […] Binding isotherms were fit to a one-site binding model using the program ORIGIN ([91]).

[2] = tested on: CR domains within C. diphtheriae’s hemin-uptake system; experiment: Hemin affinity across the cohort of CR domains (ITC and native MS partitioning); assay type: binding, Corynebacterium diphtheriae; conditions: across ChtA^CR, HtaB^CR, HtaA^CR1, HtaA^CR2
From the text: (§2) The C. diphtheriae hemin-uptake system contains six CR domains that are located at distinct sites outside the cell (Fig. 1). […] Together, they represent nearly the full complement of C. diphtheriae’s CR domains (only the domains from ChtB and ChtC are missing, but they are expected to have similar binding properties as their paralogs, HtaB and ChtA, respectively). […] Similar measurements were made for the following protein pairs: HtaA^CR2/HtaB^CR, HtaA^CR1/HtaB^CR, HtaA^CR2/HtaA^CR1, ChtA^CR/HtaA^CR2, and ChtA^CR/HtaB^CR (Table S4).
nESI-MS was used for ligand (heme)-competition experiments between CR domain pairs to determine their relative heme dissociation constant Krelative (Krel) ([37], [56]). […] The resulting mixture is then analyzed by nESI-MS, where the apo- and holo-abundance of each CR domain is determined from the sum peak intensity from each of their charge states as described previously ([37]). The relative affinity between the CR pair tested can be determined by their nESI-MS abundances according to Equation 1, which is derived from the ratio of each CR’s KD for heme. […]
(§3) For nESI-MS heme-competition experiments, CR domains were first buffer-exchanged into 50 mM ammonium acetate (pH 6.9) using dialysis or gel filtration and protein concentration was determined by bicinchoninic acid assay or UV-visible absorbance at 280 nm. […]

[3] = target: ChtA^CR K177G; experiment: ITC of hemin binding to ChtA^CR K177G; set-up: species or system Corynebacterium diphtheriae; conditions: 25 °C, average of three replicates
From the text: as §1

[4] = tested on: HtaB^CR (donor) / HtaA^CR2 (acceptor); experiment: Native ESI-MS hemin partitioning HtaB^CR → HtaA^CR2; assay type: binding, Corynebacterium diphtheriae
Description: (§4) nESI-MS was used for ligand (heme)-competition experiments between CR domain pairs to determine their relative heme dissociation constant Krelative (Krel) ([37], [56]). In this approach, two different CR domains (e.g. a >90% heme-loaded “heme donor” and a <10% heme-loaded “heme acceptor” CR domain) are mixed and allowed to come to equilibrium (>6 h, 24 °C). The resulting mixture is then analyzed by nESI-MS, where the apo- and holo-abundance of each CR domain is determined from the sum peak intensity from each of their charge states as described previously ([37]). The relative affinity between the CR pair tested can be determined by their nESI-MS abundances according to Equation 1, which is derived from the ratio of each CR’s KD for heme. Importantly, this analysis is independent of [heme] and Krel should be consistent across different concentrations of [heme donor] and [heme acceptor]; thus, we used at least three different holo-donor and apo-acceptor stoichiometry ratios to determine each Krel reported in Table S4.(eq. 1) KRelative=[CR^hemeacceptor][CR^hemedonor·heme]/[CR^hemedonor][CR^hemeacceptor·heme]=Ab(CR^hemeacceptor)Ab(CR^hemedonor·heme)/Ab(CR^hemedonor)Ab(CR^hemeacceptor·heme)
(§5) For nESI-MS heme-competition experiments, CR domains were first buffer-exchanged into 50 mM ammonium acetate (pH 6.9) using dialysis or gel filtration and protein concentration was determined by bicinchoninic acid assay or UV-visible absorbance at 280 nm. Proteins were then mixed at donor:acceptor ratios ranging from 1:9 to 9:1 (but most often 1:3, 1:1, and 3:1), and incubated for at least 6 h at 24 °C. Equilibrated mixtures were then loaded into platinum-coated borosilicate emitter tips with an inner diameter of 200 to 500 nm pulled on a Sutter P-1000 Micropipette Puller and sprayed on a Q-Exactive UHMR Hybrid Quadrupole-Orbitrap Mass Spectrometer (Thermo Fisher Scientific).
(§6) Table of all CR pairs and stoichiometric ratios tested during the native ESI-MS heme equilibrium partitioning experiments. Apo or holo CR domains were mixed at various ratios (most commonly 1:3, 1:1, and 3:1, corresponding to 5:15 µM, 10:10 µM, or 15:5 µM, respectively).

[5] = tested on: HtaA^CR2 (donor) / HtaB^CR (acceptor); experiment: Native ESI-MS hemin partitioning HtaA^CR2 → HtaB^CR; assay type: binding, Corynebacterium diphtheriae
Description: as §4, §5, §6

[6] = target: IsdH NEAT domain; set-up: method as in PMID 23649633, PMID 24245481; conditions: ITC, ref [57], [58]; cited from earlier work
[7] = target: HtaA^CR1 (residues S37-G214); experiment: Estimated hemin KD from native ESI-MS partitioning; assay type: binding, Corynebacterium diphtheriae; conditions: read-out: estimated KD for hemin, from nESI-MS Krel using ITC value of ChtA^CR as reference
From the text: as §2, §4, §3

[8] = target: HtaB^CR (HtaB, residues of 30–273); experiment: Estimated hemin KD from native ESI-MS partitioning; assay type: binding, Corynebacterium diphtheriae; conditions: read-out: estimated KD for hemin, from nESI-MS Krel using ITC value of ChtA^CR as reference
From the text: as §2, §4, §3

[9] = target: HtaA^CR2 (residues G344-G506); experiment: Estimated hemin KD from native ESI-MS partitioning; assay type: binding, Corynebacterium diphtheriae; conditions: read-out: estimated KD for hemin, from nESI-MS Krel using ITC value of ChtA^CR as reference
From the text: as §2, §4, §3

[10] = tested on: HtaA^CR1 (donor) / HtaB^CR (acceptor); experiment: Native ESI-MS hemin partitioning HtaA^CR1 → HtaB^CR; assay type: binding, Corynebacterium diphtheriae
Description: as §4, §5, §6

[11] = target: T1, metHb (Homo sapiens, UniProt P68871+P69905); experiment: Hemin release kinetics from metHb (A405 plate reader assay with apo-acceptor); assay type: binding; conditions: 5 µM metHb, brackets 95% confidence interval; for kfast / kslow: 25 °C
T1 construct: blood-purified HbA in the carbonmonoxy form; from tissue; host or cells: blood
T1 sequence (P69905 2-142 limits assumed): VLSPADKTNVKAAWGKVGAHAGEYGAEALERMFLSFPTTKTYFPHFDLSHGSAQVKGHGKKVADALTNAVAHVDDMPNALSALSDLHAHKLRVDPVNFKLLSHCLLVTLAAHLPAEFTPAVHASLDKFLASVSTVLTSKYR
T1 sequence (P68871 2-147 limits assumed): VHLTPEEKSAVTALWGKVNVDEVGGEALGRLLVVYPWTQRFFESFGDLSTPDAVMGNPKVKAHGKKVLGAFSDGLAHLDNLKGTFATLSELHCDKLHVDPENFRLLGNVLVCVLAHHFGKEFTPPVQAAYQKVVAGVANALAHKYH
Description: Holo-metHb was injected to a final concentration of 5 μM on the heme basis in triplicate with 50 μM of the respective apo protein in a 384-well plate. The absorbance at 405 nm was measured every 2.5 min for 20 h in a SpectraMax iD3 plate reader (Molecular Devices). Experiments were performed at 25 °C to avoid apo-globin aggregation. Resulting curves were fit to a two-phase exponential decay equation in GraphPad Prism version 9.5.0 (GraphPad Software).
Bracketed values represent the 95% confidence interval for the fitted parameter values.

[12] = tested on: ChtA^CR Y178A; experiment: ITC of hemin binding to ChtA^CR Y178A; set-up: species or system Corynebacterium diphtheriae
From the text: as §1

[13] = apo-acceptor Myoglobin^H64Y/V68F 50 µM

hemin
Kd [1]: 27.1 ± 9 nM | variation in binding strength [2]: ~25 fold | Kd [3]: 23.6 ± 0.8 nM | Krel (donor/acceptor) ([4]; acceptor HtaA^CR2, AVERAGE): 0.18 ± 0.01 | Krel inverse ([4]; acceptor HtaA^CR2, AVERAGE): 5.66 ± 0.33 | Krel (donor/acceptor) ([4]; acceptor HtaA^CR2, ratio 1:1): 0.17 | Krel inverse ([4]; acceptor HtaA^CR2, ratio 1:1): 5.8 | Krel (donor/acceptor) ([4]; acceptor HtaA^CR2, ratio 1:3): 0.17 | Krel inverse ([4]; acceptor HtaA^CR2, ratio 1:3): 5.9 | Krel (donor/acceptor) ([4]; acceptor HtaA^CR2, ratio 3:1): 0.19 | Krel inverse ([4]; acceptor HtaA^CR2, ratio 3:1): 5.28 | Krel (donor/acceptor) ([5]; AVERAGE): 4.93 ± 0.88 | Krel inverse ([5]; AVERAGE): 0.21 ± 0.04 | Krel (donor/acceptor) ([5]; ratio 1:1): 3.92 | Krel inverse ([5]; ratio 1:1): 0.26 | Krel (donor/acceptor) ([5]; ratio 1:3): 5.31 | Krel inverse ([5]; ratio 1:3): 0.19 | Krel (donor/acceptor) ([5]; ratio 3:1): 5.56 | Krel inverse ([5]; ratio 3:1): 0.18 | Kd [6]: 34 ± 8 nM | Kd [7]: 1.1 ± 0.3 nM | Kd [8]: 5.4 ± 1 nM | Kd [9]: 0.85 ± 0.15 nM | Krel (donor/acceptor) ([10]; AVERAGE): 5.75 ± 1.4 | Krel inverse ([10]; AVERAGE): 0.18 ± 0.05 | Krel (donor/acceptor) ([10]; ratio 1:1): 7.51 and 4.09 and 6.88 | Krel inverse ([10]; ratio 1:1): 0.13 and 0.24 and 0.15 | Krel (donor/acceptor) ([10]; ratio 1:3): 4.46 and 4.42 | Krel inverse ([10]; ratio 1:3): 0.22 and 0.23 | Krel (donor/acceptor) ([10]; ratio 3:1): 6.16 and 6.76 | Krel inverse ([10]; ratio 3:1): 0.16 and 0.15 | kfast ([11]; apo-acceptor ChtA^CR 50 µM): 1.78 [1.51 - 2.1] hr^-1 | kslow ([11]; apo-acceptor ChtA^CR 50 µM): 0.18 [0.17 - 0.19] hr^-1 | %kfast ([11]; apo-acceptor ChtA^CR 50 µM): 35.52% [33.1% - 37.9%] | kfast ([11]; apo-acceptor HtaA^CR1 50 µM): 1.55 [1.13 - 2.15] hr^-1 | kslow ([11]; apo-acceptor HtaA^CR1 50 µM): 0.21 [0.18 - 0.23] hr^-1 | %kfast ([11]; apo-acceptor HtaA^CR1 50 µM): 33.11% [26.9% - 39%] | kfast ([11]; apo-acceptor HtaA^CR2 50 µM): 2.46 [2.23 - 2.72] hr^-1 | kslow ([11]; apo-acceptor HtaA^CR2 50 µM): 0.21 [0.19 to 0.22] hr^-1 | %kfast ([11]; apo-acceptor HtaA^CR2 50 µM): 41.11% [39.3% - 42.9%] | kslow [11, 13]: 0.13 [0.11 - 0.14] hr^-1 | %kfast [11, 13]: 34.6% [30.8% - 38.3%] | reduction of affinity ([12]; ChtA^CR Y178A versus WT): ~2 fold | Kd ([12]; ChtA^CR Y178A, 25 °C, average of three replicates): 46.6 ± 9.6 nM
